Results taken from PubChem BioAssay (NCI).
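Cultured in 96-well plates, cells were exposed to test compound for 48 hours across five concentrations. GI50 marks 50% less growth. TGI: concentration producing complete growth inhibition.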 Where a SMILES comes first, the peptide text is derived from it.

Legend:
Assay in all cases: growth of human tumour cells (NCI), 48 h
CCRF-CEM leukemia = test system: CCRF-CEM leukemia
M14 melanoma = test system: M14 melanoma
SK-MEL-5 melanoma = test system: SK-MEL-5 melanoma
SK-OV-3 ovarian = test system: SK-OV-3 ovarian
SNB-19 CNS = test system: SNB-19 CNS
HCT-15 colon = test system: HCT-15 colon
COLO 205 colon = test system: COLO 205 colon
A549 NSCLC = test system: A549 NSCLC
MDA-MB-435 = test system: MDA-MB-435
TK-10 renal = test system: TK-10 renal
SK-MEL-2 melanoma = test system: SK-MEL-2 melanoma
SF-268 CNS = test system: SF-268 CNS
CAKI-1 renal = test system: CAKI-1 renal
BT-549 breast = test system: BT-549 breast

Row | SMILES | TGI (CCRF-CEM leukemia) [µM] | TGI (M14 melanoma) [µM] | TGI (SK-MEL-5 melanoma) [µM] | TGI (SK-OV-3 ovarian) [µM] | TGI (SNB-19 CNS) [µM] | TGI (HCT-15 colon) [µM] | TGI (COLO 205 colon) [µM] | TGI (A549 NSCLC) [µM] | TGI (MDA-MB-435) [µM] | TGI (TK-10 renal) [µM] | TGI (SK-MEL-2 melanoma) [µM] | TGI (SF-268 CNS) [µM] | TGI (CAKI-1 renal) [µM] | TGI (BT-549 breast) [µM] | GI50 (CCRF-CEM leukemia) [µM] | GI50 (SK-MEL-2 melanoma) [µM]
1 | CC(C)=CCS(=O)c1ccccc1NC1=CC(=O)CC(C)(C)C1 (configuration not stated) | > 100 | > 100 | > 100 | > 100 | > 100 | 28.7 | > 100 | > 100 | > 100 | > 100 | > 100 | > 100 | > 100 | > 100 |  | 
2 | COc1cccc(OC)c1/C=C1\OC(=O)c2cccc(OC)c21 | > 100 | > 58.9 | > 100 | > 100 | > 100 | > 100 | 30.9 | > 100 | 2.12 | > 100 | > 30.1 | > 100 | > 75.2 | > 90.6 |  | 
3 | Cc1ccc(S(=O)(=O)C2=Cc3ccc(C(F)(F)F)cc3C2(O)c2cccc(C(F)(F)F)c2)cc1 (configuration not stated) | 8.17 | 4.83 | 3.35 | 28.2 | 16.8 | 4.27 | 3.43 | 8.61 | 4.28 | 5.96 | 3.57 | 8.65 | 14.6 | 5.22 |  | 
4 | O=C1NC(=O)C(c2c[nH]c3cc(Br)ccc23)=C1c1cn(C(c2ccccc2)(c2ccccc2)c2ccccc2)cn1 | > 100 | 29.9 | 22.9 | > 100 | 97.4 | 37.6 | 27.4 | 27.3 | > 100 | 38.4 | 25.8 | 33.1 | 97.4 | 38.8 |  | 
5 | Cc1cccc2c1[C@]13OC(C)[C@]4(C)CC5OC(=O)[C@@]1(C)[C@@H]5[C@]34C(=O)O2 (some centres not stated) | > 100 | > 100 | > 100 | > 100 | > 100 | > 100 | > 100 | > 100 | > 100 | > 100 | > 100 | > 100 | > 100 | > 100 |  | 
6 | N#Cc1c(-c2ccccc2)[nH]c2ccccc2c1=O | > 100 | > 100 | > 100 | > 100 | 74.9 | > 100 | > 100 | > 100 | 59.2 | 97.8 | > 100 | > 100 | > 100 | 69.8 |  | 
7 | CC(=O)OC1CC2c3cccc4c3C(CC2N(C)C1=O)CN4C(=O)c1ccccc1 (configuration not stated) | > 100 | 55.8 | 29.1 | 80.4 | > 100 | 46.2 | 56.1 | 37.2 | 52.6 | > 100 | 64.9 | > 100 | 54.8 | 33.1 |  | 
8 | COc1ccc2c(c1C)C(=O)C(O)(CC=C(C)C)O2 (configuration not stated) | > 100 | > 100 | > 100 | > 100 | > 100 | > 100 | > 100 | > 100 | > 100 | > 100 | > 100 | > 100 | > 100 | > 100 |  | 
9 | CC1=CC(C2/C(=N/O)C=C(C)CC2(C)C)C(O)C(C)(C)C1 (configuration not stated) | 60.4 | 28.9 | 29.5 | 38.1 | 29.5 | 33.6 | 36 | 29.6 | 31.2 | 35.2 | 30.6 | 37.1 | 28.2 | 32.8 |  | 
10 | CCC(C)C(NC(=O)C(CCCCN)NC(=O)C(NC(=O)C(CCC(N)=O)NC(=O)C(N)CCCNC(=N)N)C(C)CC)C(=O)NC(Cc1c[nH]c2ccccc12)C(=O)NC(Cc1ccccc1)C(=O)NC(CCC(N)=O)C(=O)NC(CC(N)=O)C(=O)NC(CCCNC(=N)N)C(=O)NC(CCCNC(=N)N)C(=O)NC(CCSC)C(=O)NC(CCCCN)C(=O)NC(Cc1c[nH]c2ccccc12)C(=O)NC(CCCCN)C(=O)NC(CCCCN)C(=O)N1CCCC1C(=O)NC(C)C(=O)NC(CCCCN)C(=O)NC(CCCNC(=N)N)C(=O)NC(CCCCN)C(=O)NC(CC(C)C)C(=O)NC(Cc1ccccc1)C(=O)NCC(=O)O (configuration not stated) (H-RQIKIWFQNRRMKWKKPAKRKLFG-OH; configuration not given here) | > 25 | > 25 | > 25 | > 25 | > 25 | > 25 | > 25 | > 25 | > 25 | > 25 | > 25 | > 25 | > 25 | > 25 |  | 
11 | NS(=O)(=O)c1ccc(-n2c(-c3cccs3)nc3ccc(I)cc3c2=O)cc1 | > 100 | 56 | 47.1 | 53.7 | 70.6 | 50.9 | 40.3 | 41.5 | 42.4 | 50.8 | 47.6 | 86.8 | 36.6 | 37.9 | 41.2 | 21.8
12 | CN(C)C1=Nc2ccccc2C(=S)N2CSCC12 (configuration not stated) | 45.1 | > 100 | > 100 | > 100 | > 100 | > 100 | 52 | > 100 | > 100 | > 100 | > 100 | > 100 | 45 | > 100 |  | 
13 | C=CCNC1=C2C[C@@H](C)C[C@@H](OC)[C@@H](OC(=O)CCCN)[C@H](C)/C=C(\C)[C@@H](OC(N)=O)[C@H](OC)/C=C\C=C(/C)C(=O)NC(=CC1=O)C2=O | 28.9 | 28.7 | 33.7 | 28.7 | 32.2 | 41.2 | 13.6 | 32.8 | 45.2 | 33.4 | 31 | 30.7 | 35.3 | 25.7 |  | 
14 | COc1ccc(CCNC2=CC(=O)c3ncccc3C2=O)cc1OC | 39.1 | 2.69 | 0.793 | 24.4 | 7.27 | 5.09 | 3.23 | 2.51 | 0.924 | > 86 | 6.73 | 34.9 | 12.2 | 2.82 |  | 
15 | COc1ccc2c(c1)CCc1c-2[nH]c2ccc(OC)cc12 | 97.7 | > 100 | > 100 | > 100 | > 100 | > 100 | > 100 | > 100 | > 100 | > 100 | > 100 | > 100 | > 100 | > 100 |  | 
16 | N#CC(NNC(=O)Cc1ccccc1)c1ccccc1O (configuration not stated) | > 54.9 | 24.2 | > 72.2 | > 85.4 | > 80.8 | > 100 | > 100 | > 90.4 | > 100 | > 100 | > 100 | 98.7 | > 89.9 | > 100 |  | 
17 | CC1=C(C(N)=O)C(c2ccncc2)C(C#N)=C2SCC(=O)N12 (configuration not stated) | > 100 | > 100 | > 100 | > 100 | > 100 | > 100 | > 100 | > 100 | > 100 |  | > 100 | > 100 | > 100 | > 100 |  | 
18 | CN(Nc1cc(=O)[nH]c(=O)[nH]1)c1ccccc1 | > 100 | > 100 | > 100 | > 100 | > 100 |  | > 100 | > 100 | > 100 | > 100 | > 100 | > 100 | > 100 | > 100 |  | 
19 | O=C(CC(c1ccccc1)N1CCCCC1)c1ccccc1 (configuration not stated) | 4.69 | 42.3 | 29.6 | 31.4 | 36.1 | 36.6 | 37.9 | 41.3 | 27.4 | 27.3 | 35.4 | 33.4 | 30.3 | 34.8 |  | 
20 | CCC1OC2C(CC=C(C)C)=C3OC(C)(O)C(C)(CC)C(OC(=O)c4ccccc4)C3=C3OC(=O)C=C1C32 (configuration not stated) | > 100 | > 100 | 43.7 | > 100 | 94.6 | > 100 | 39.8 | > 100 | > 100 | > 100 | 55.2 | > 100 | > 100 | 47.7 |  | 
21 | O=C(O)c1nc(-c2ccccn2)c(-c2ccccn2)nc1C(=O)O | > 43.1 | 3.59 | 8.53 | 16.3 | 19.1 | > 42.5 | 7.75 | 11.9 | 30.8 | 15.3 | 29.9 | 24.1 | 8.5 | 37.6 |  | 
22 | CCOC(=O)C(N)CSC(=O)NC (configuration not stated) | 147 | 275 | 393 | 621 | 600 | 312 | 360 | 836 | 98.4 | 566 | 276 | 443 | 461 | 346 |  | 
23 | COc1ccc2c3c1O[C@H]1C(O)CCC4(O)[C@@H](C2)NCC[C@]314 (some centres not stated) | > 100 | > 100 | > 100 | > 100 | > 100 | > 100 | > 100 | > 100 | > 100 | > 100 | > 100 | > 100 | > 100 | > 100 |  | 
24 | CCN(CC)c1ccc2cc(-c3nnc(-c4ccccc4)o3)c(=O)oc2c1 | > 100 | > 100 | > 100 | 21.2 | > 80.9 | > 100 | > 100 | > 100 | > 100 | > 62.6 | > 87.2 | > 100 | > 100 | > 100 |  | 
25 | CCN(CC)/C(Cl)=C(Cl)\C(=C1\Nc2ccc(OC)cc21)[N+](=O)[O-] | 93.6 | > 100 | > 100 | > 100 | > 100 | > 100 | > 100 | > 100 | > 100 | > 100 |  | > 100 | > 100 | > 100 |  | 
26 | Cc1cn(C2CC(ON3C(=O)c4ccccc4C3=O)C(CO)O2)c(=O)[nH]c1=O (configuration not stated) | > 10 | > 10 |  | > 10 | > 10 | > 10 |  | > 10 | > 10 | > 10 | > 10 | > 10 |  | > 10 |  | 
27 | CC(=O)c1csc2c1C(=O)c1scc(C(C)=O)c1C2=O | 1.82 | 3.1 | 2.77 | 4.64 | 3.32 | 3.2 | 3.63 | 4.19 | 0.336 | 5.82 | 3.73 | 3.44 | 4.1 | 3.18 |  | 
28 | c1cc(-c2ncc(-c3ccc4c(c3)CCCO4)o2)ccn1 | 29.3 | 94.5 | 21.2 | 93.5 | > 100 | 69.7 | 91.5 | > 100 | 15.3 | 89.8 | 37.6 | 86.3 | > 100 | 53.3 |  | 
29 | CC(=O)N(C(=O)CC(=O)N/N=C\c1ccc(Br)c(N(CCC#N)CCC#N)c1)c1ccc(Cl)cc1 | > 100 | > 100 |  | > 100 | > 100 | > 100 | > 100 | > 100 | > 100 | > 100 |  | > 100 | > 100 | > 100 |  | 
30 | C[C@]12CCC(=O)C=C1CC[C@@H]1C2CC[C@]2(C)c3nn(-c4ccc(F)cc4)nc3CC12 (some centres not stated) | > 100 | > 100 | > 100 | > 100 | > 100 |  | > 100 | > 100 | > 100 | > 100 |  | > 100 | > 100 | > 100 |  | 
